Earlier results in patent publication US20240189323A1, “PREPARATION FOR ETHINYLESTRADIOL-CYCLODEXTRIN COMPLEX AND USE THEREOF” (NATIONAL RESEARCH INSTITUTE FOR FAMILY PLANNING, priority 2022, published 2024).

Conditions: background description

solubility in water: almost insoluble in water
SMILES: C#C[C@]1(O)CC[C@H]2[C@@H]3CCc4cc(O)ccc4[C@H]3CC[C@@]21C [ethinylestradiol, 3-hydroxy-19-nor-17α-pregna-1,3,5(10)-trien-20-yn-17-ol]
